Experiments:
VMAT2 = VMAT2 (Rattus norvegicus, UniProt Q01827); assay: Vesicular [3H]DA uptake assay; format: biochemical; details: for further improvement in inhibitory potency at VMAT2 on hydrolysis of the 4-acetoxy groups: relative to acetoxy precursors 4 and 5
SERT = SERT (Rattus norvegicus, UniProt P31652); assay: Synaptosomal [3H]5-HT uptake assay; format: biochemical
Chain of SERT (P31652 whole entry): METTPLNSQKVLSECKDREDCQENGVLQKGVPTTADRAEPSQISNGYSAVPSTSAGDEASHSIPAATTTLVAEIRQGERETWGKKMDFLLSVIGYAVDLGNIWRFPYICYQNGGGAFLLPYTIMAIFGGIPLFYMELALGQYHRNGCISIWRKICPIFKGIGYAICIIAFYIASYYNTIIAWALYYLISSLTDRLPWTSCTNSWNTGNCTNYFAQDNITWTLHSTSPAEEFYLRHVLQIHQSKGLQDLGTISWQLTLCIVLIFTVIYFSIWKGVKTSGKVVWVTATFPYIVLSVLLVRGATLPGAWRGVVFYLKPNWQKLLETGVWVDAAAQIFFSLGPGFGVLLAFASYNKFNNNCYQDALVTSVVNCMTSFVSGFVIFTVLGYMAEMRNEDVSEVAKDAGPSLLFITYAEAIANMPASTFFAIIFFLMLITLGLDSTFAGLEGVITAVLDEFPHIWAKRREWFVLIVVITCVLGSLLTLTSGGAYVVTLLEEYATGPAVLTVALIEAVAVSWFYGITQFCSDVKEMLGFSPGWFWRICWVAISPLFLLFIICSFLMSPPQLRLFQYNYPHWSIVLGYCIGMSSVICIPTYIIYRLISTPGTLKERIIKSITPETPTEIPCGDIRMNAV

Chain of VMAT2 (Q01827 whole entry): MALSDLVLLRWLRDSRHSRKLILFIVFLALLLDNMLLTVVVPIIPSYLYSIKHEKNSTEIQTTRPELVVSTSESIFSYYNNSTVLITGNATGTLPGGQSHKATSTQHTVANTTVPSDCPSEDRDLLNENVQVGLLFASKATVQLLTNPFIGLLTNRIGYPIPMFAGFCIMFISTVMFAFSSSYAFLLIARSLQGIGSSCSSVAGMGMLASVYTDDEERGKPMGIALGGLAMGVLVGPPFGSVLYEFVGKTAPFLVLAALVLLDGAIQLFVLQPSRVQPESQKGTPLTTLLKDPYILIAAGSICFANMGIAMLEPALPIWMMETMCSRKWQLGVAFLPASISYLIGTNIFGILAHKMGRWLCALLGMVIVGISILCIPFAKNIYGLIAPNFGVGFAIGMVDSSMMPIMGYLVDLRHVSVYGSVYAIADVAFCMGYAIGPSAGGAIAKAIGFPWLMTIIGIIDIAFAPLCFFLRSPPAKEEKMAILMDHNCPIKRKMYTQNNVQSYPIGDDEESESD

## CC(=O)Oc1ccc(CC[C@H]2CCC[C@@H](CCc3ccc(OC(C)=O)cc3)N2C)cc1.Cl [Compound 5]
VMAT2; N-methylation of 4
  improved inhibitory potency at VMAT2 relative to 4: 3 fold

## CN1[C@@H](CCc2ccc(O)cc2)CCC[C@H]1CCc1ccc(O)cc1.Cl [Compound 6]
VMAT2
  further improvement in inhibitory potency at VMAT2 on hydrolysis of the 4-acetoxy groups: about 2 fold

## Cl.Oc1ccc(CC[C@H]2CCC[C@@H](CCc3ccc(O)cc3)N2)cc1 [Compound 7]
VMAT2
  further improvement in inhibitory potency at VMAT2 on hydrolysis of the 4-acetoxy groups: about 2 fold

## Cl.FCCOc1ccc(CC[C@H]2CCC[C@@H](CCc3ccc(OCCF)cc3)N2)cc1 [Compound 13]
SERT
  greater affinity for SERT than lobelane: 6 fold

## Cl.OC[C@H](O)CN1[C@@H](CCc2ccc(O)cc2)CCC[C@H]1CCc1ccc(OCCF)cc1 [Compound 16]
SERT
  greater affinity for SERT than GZ-793A: 7 fold

## Cl.OC[C@H](O)CN1[C@@H](CCc2ccc(OCCF)cc2)CCC[C@H]1CCc1ccc(OCCF)cc1 [Compound 17]
SERT
  decrease in affinity for SERT when compared to GZ-793A: 4 fold
